Data from article PMC6351562, “Structure, function, and inhibition of drug reactivating human gut microbial β-glucuronidases” (Scientific Reports, 2019).
Values joined by “and” are separate entries in the source; they are usually repeats but may differ in a detail not shown here. Equal values may be shown once.

Tests used:
Assay in all cases: In vitro DCF-G processing assay (UPLC)
Assay type in all cases: biochemical
[1] = target: T1, Lactobacillus rhamnosus GUS (LrGUS) (Lacticaseibacillus rhamnosus, UniProt A0A2A5L2J1); settings: DCF-G as substrate, 400 µM; pH 4.5; 37 °C
T1 sequence (A0A2A5L2J1 1-603): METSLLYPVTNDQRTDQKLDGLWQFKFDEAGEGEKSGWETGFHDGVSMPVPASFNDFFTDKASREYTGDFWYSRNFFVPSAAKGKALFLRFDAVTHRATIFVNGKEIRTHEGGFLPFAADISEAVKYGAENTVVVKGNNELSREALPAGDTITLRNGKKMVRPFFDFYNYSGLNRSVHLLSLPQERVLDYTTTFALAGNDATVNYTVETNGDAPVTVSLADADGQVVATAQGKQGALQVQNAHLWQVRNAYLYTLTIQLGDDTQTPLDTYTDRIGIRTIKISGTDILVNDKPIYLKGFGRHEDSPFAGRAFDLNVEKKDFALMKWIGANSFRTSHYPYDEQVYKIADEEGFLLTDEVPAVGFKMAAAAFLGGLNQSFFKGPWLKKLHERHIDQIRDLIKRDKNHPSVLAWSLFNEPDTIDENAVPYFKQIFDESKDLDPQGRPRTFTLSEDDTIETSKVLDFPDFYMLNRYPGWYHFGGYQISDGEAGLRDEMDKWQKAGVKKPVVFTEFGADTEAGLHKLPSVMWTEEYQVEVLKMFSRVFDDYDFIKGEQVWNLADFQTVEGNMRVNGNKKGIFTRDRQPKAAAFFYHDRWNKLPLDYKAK

[2] = target: T2, Bacteroides uniformis GUS (BuGUS) (Bacteroides uniformis, UniProt A0A078SUX9); settings: DCF-G as substrate, 400 µM; pH 5.5; 37 °C
T2 sequence (A0A078SUX9 32-886): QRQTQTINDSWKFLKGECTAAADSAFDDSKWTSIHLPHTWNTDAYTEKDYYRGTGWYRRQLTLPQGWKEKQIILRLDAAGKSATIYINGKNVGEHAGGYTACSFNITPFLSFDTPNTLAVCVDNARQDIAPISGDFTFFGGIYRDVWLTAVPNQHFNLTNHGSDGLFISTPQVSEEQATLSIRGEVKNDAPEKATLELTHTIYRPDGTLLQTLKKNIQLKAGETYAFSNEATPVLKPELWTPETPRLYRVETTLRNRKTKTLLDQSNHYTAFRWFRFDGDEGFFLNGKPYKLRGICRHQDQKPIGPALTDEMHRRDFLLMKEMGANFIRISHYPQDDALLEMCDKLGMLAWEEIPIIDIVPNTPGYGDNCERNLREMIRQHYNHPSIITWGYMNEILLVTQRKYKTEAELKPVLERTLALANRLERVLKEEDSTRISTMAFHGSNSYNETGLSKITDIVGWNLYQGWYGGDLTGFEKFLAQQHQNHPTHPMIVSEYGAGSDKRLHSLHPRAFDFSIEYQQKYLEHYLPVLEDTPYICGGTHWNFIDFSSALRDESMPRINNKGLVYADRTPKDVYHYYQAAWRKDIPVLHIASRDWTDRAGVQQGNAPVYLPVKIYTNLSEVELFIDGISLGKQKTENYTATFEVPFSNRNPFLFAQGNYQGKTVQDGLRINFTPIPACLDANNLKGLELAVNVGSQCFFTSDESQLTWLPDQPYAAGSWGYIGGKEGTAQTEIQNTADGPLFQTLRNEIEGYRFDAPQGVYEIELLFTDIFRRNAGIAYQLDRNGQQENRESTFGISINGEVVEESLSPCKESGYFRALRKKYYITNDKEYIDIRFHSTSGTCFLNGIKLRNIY

[3] = target: T3, Faecalibacterium prausnitzii GUS (FpGUS) (Faecalibacterium duncaniae, UniProt C7H4D2); settings: DCF-G as substrate, 400 µM; pH 6.0; 37 °C
T3 sequence (C7H4D2 1-608): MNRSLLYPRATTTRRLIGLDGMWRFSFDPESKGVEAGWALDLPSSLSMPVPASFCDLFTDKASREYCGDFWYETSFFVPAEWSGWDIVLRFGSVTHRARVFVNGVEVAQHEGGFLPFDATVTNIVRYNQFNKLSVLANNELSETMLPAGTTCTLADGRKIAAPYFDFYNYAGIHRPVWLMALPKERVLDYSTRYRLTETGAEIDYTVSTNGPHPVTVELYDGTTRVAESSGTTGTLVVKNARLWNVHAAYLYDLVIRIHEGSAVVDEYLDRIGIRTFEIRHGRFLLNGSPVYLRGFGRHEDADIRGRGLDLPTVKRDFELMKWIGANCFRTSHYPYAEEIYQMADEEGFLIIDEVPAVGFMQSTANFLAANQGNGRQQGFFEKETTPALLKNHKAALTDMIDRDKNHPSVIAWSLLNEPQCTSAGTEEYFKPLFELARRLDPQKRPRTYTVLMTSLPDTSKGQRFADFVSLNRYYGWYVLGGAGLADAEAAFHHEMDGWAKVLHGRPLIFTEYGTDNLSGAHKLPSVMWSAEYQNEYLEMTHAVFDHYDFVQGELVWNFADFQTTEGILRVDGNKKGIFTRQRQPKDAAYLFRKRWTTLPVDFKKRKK

[4] = target: T4, Bacteroides dorei GUS (BdGUS) (Phocaeicola dorei, UniProt I9FNR0); settings: DCF-G as substrate, 400 µM; pH 6.0; 37 °C
T4 sequence (I9FNR0 21-875): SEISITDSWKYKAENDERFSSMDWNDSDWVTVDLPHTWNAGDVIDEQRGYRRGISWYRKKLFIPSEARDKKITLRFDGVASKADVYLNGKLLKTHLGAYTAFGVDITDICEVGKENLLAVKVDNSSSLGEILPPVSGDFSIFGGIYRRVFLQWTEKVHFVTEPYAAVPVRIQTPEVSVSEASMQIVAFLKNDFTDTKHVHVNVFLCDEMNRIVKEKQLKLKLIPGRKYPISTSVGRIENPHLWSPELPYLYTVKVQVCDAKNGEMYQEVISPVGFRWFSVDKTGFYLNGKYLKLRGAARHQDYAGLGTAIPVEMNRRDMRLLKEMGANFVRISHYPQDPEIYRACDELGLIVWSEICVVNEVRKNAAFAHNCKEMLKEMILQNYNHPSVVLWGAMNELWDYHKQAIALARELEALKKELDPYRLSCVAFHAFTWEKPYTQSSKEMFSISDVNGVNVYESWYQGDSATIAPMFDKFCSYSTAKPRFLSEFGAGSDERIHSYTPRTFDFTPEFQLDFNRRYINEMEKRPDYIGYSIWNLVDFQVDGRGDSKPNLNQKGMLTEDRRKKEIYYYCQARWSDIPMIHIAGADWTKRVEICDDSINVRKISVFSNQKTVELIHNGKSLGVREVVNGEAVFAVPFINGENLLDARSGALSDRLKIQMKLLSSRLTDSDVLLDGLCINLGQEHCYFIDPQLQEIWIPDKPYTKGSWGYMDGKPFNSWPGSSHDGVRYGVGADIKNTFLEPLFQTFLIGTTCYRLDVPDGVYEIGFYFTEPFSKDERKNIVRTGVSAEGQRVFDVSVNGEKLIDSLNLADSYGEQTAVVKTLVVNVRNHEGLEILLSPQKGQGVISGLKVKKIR

SMILES: O=C(Cc1ccccc1Nc1c(Cl)cccc1Cl)O[C@@H]1O[C@H](C(=O)O)[C@@H](O)[C@H](O)[C@H]1O [DCF-G, Diclofenac acyl β-D-glucuronide]
- Apparent kcat [1]: 10 s⁻¹ and 10 ± 1 s⁻¹
- Apparent kcat [2]: 10 ± 1 s⁻¹
- Apparent kcat [3]: 32 ± 3 s⁻¹
- Apparent kcat [4]: 9.8 ± 0.6 s⁻¹
